Assay results: patent US10829473B2, “Modulators of the cystic fibrosis transmembrane conductance regulator protein and methods of use” (AbbVie Overseas S.Á.R.L., priority 2017, dated 2020)
Where two headings read alike, the source gives them in different places. Marks after values point to notes of the source that are not given here.

Biological target: T1, F508delCFTR (Homo sapiens, UniProt P13569, DEL508-508)
T1 construct: expressed in transfected cells; host or cells: CFBE41o- human lung derived epithelial cells (CFBE41o-F508delCFTR-HRP), doxycycline-inducible
T1 sequence (P13569 with tags, fused parts or gaps DEL508-508): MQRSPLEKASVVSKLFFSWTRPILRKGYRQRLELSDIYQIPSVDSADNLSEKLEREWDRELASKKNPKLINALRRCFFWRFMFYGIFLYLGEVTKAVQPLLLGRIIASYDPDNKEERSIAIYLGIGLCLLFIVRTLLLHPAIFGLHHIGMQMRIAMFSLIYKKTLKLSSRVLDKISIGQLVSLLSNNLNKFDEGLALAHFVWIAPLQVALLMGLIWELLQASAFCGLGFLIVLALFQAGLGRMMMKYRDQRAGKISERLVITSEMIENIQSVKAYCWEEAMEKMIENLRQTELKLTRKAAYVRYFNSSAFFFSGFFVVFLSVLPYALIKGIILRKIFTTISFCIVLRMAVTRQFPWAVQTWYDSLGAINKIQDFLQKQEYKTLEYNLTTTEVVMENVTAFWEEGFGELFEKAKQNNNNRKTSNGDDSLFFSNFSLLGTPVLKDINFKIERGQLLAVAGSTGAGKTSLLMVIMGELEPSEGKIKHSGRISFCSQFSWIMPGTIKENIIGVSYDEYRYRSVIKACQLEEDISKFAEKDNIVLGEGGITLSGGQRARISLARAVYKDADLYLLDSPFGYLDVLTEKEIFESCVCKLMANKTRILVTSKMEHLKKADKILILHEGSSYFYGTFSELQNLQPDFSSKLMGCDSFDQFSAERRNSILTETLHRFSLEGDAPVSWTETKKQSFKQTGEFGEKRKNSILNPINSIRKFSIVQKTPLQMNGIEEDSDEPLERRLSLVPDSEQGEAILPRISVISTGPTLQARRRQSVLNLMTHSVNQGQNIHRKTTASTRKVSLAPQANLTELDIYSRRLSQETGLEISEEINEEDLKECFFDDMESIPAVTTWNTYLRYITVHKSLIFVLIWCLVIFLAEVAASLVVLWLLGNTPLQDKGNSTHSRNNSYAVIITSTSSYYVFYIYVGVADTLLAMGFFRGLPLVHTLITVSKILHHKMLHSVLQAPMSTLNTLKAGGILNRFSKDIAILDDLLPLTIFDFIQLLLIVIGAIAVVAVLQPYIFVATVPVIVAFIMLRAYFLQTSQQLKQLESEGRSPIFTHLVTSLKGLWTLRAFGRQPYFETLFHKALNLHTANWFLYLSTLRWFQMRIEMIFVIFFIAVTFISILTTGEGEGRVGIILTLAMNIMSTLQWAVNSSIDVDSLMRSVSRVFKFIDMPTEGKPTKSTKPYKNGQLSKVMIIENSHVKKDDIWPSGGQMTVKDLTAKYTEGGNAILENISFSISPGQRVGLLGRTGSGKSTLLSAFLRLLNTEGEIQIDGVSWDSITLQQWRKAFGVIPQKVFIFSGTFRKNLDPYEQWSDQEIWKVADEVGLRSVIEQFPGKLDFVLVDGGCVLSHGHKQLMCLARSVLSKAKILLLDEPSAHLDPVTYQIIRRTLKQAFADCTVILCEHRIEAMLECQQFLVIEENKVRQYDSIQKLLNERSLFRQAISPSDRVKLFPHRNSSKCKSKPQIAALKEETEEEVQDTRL
Test: Cell Surface Expression-Horse Radish Peroxidase (CSE-HRP) Assay;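 on EC50 (with co-corrector): co-corrector chromenyl benzoic acid corrector at 2 or 3 µM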;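 on Maximum % activity (without co-corrector): % of on-plate positive control chromenyl benzoic acid corrector at 2 or 3 µM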
Type: cell-based
Details: for Maximum % activity (with co-corrector) / Emax: maximum at any tested concentration; for Emax: read-out: Maximum % activity (without co-corrector)
Procedure, shortened: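 Corrector compounds were given as 8-point 3-fold series from 20 or 30 μM, with or without a 2 μM co-corrector, for 18-24 h at 33 °C. Surface HRP was read by luminol luminescence as % of positive control; variable-Hill-slope sigmoidal fitting gave EC50 from triplicate plates.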

[1] = test compound alone, without co-corrector, read-out: EC50 (without co-corrector)
[2] = with co-corrector, read-out: EC50 (with co-corrector)
[3] = test compound with co-corrector
[4] = test compound with co-corrector, read-out: EC50 (with co-corrector)
[5] = test compound without co-corrector
[6] = test compound without co-corrector, read-out: EC50 (without co-corrector)

SMILES	EC50 [1]	Maximum % activity (with co-corrector) (with co-corrector)	EC50 [2]	Emax (without co-corrector)	Maximum % activity (with co-corrector) [3]	EC50 [4]	Emax [5]	EC50 [6]	EC50 (without co-corrector) [5]
CCOc1ncc(CC)cc1C1(C(=O)NS(=O)(=O)c2cccc3ncccc23)CC1 [Example GI-116, 1-(2-ethoxy-5-ethylpyridin-3-yl)-N-(quinoline-5-sulfonyl)cyclopropane-1-carboxamide]					+++ (≥350)	< 3 µM	> 150%	3 to 10 µM	
COc1ccc(C2CCC2)cc1C1(C(=O)NS(=O)(=O)c2cccc3ccc(C)nc23)CC1 [Example I-62, 1-(5-cyclobutyl-2-methoxyphenyl)-N-(2-methylquinoline-8-sulfonyl)cyclopropane-1-carboxamide]	< 3 µM	+++ (≥350)	< 3 µM	> 150%					
CCc1ccc(O[C@H](C)COC)c(C2(C(=O)NS(=O)(=O)c3cccc4nc(C)ccc34)CC2)c1 [Example I-112, 1-(5-ethyl-2-{[(2R)-1-methoxypropan-2-yl]oxy}phenyl)-N-(2-methylquinoline-5-sulfonyl)cyclopropane-1-carboxamide]	< 3 µM	+++ (≥350)	< 3 µM	> 150%					
COCCOc1cnc(OC)cc1C1(C(=O)NS(=O)(=O)c2cccc3[nH]ccc23)CC1 [GII-45, N-(1H-indole-4-sulfonyl)-1-[2-methoxy-5-(2-methoxyethoxy)pyridin-4-yl]cyclopropane-1-carboxamide]					+++ (≥350)	3 to 10 µM	> 150%	3 to 10 µM	
Cc1ccc(C)c(C2(C(=O)NS(=O)(=O)c3cccc4[nH]ccc34)CC2)c1 [II-80]	3 to 10 µM	+++ (≥350)	< 3 µM	> 150%					
COc1ccc(C)nc1C1(C(=O)NS(=O)(=O)c2cccc3ncccc23)CC1 [Example III-124, 1-(3-methoxy-6-methylpyridin-2-yl)-N-(quinoline-5-sulfonyl)cyclopropane-1-carboxamide]	3 to 10 µM	+++ (≥350)	3 to 10 µM	50 to 150%					
COc1ccc(Br)cc1C1(C(=O)NS(=O)(=O)c2cccc3c2CCCN3)CCC1 [Example I-9, 1-(5-bromo-2-methoxyphenyl)-N-(1,2,3,4-tetrahydroquinoline-5-sulfonyl)cyclobutane-1-carboxamide]	< 3 µM	+++ (≥350)	< 3 µM	> 150%					
COc1ccc(C)cc1C1(C(=O)NS(=O)(=O)c2cccc3[nH]ncc23)CC1 [Example I-53, N-(1H-indazole-4-sulfonyl)-1-(2-methoxy-5-methylphenyl)cyclopropane-1-carboxamide]	3 to 10 µM	+++ (≥350)	< 3 µM	> 150%					
Cc1ccc(OC2COC2)c(C2(C(=O)NS(=O)(=O)c3cccc4nc(N)ccc34)CC2)c1 [II-90]	3 to 10 µM	+++ (≥350)	3 to 10 µM	> 150%					
CN1CCN(c2ncc(C3CCC3)cc2C2(C(=O)NS(=O)(=O)c3cccc4ncccc34)CC2)CC1 [GIII-31]					+ (<150)	> 10 µM	< 50%	> 10 µM	
CCc1ccc(OC)c(C2(C(=O)NS(=O)(=O)c3cccc4nc(C)ccc34)CC2)c1 [Example I-84, 1-(5-ethyl-2-methoxyphenyl)-N-(2-methylquinoline-5-sulfonyl)cyclopropane-1-carboxamide]	< 3 µM	+++ (≥350)	< 3 µM	> 150%					

Second part, the molecule after the results:

EC50 [1]	Maximum % activity (with co-corrector) (with co-corrector)	EC50 [2]	Emax (without co-corrector)	Maximum % activity (with co-corrector) [3]	EC50 [4]	Emax [5]	EC50 [6]	EC50 (without co-corrector) [5]	SMILES
< 3 µM	+++ (≥350)	< 3 µM	> 150%						COc1ccc(C(C)(C)OC)cc1C1(C(=O)NS(=O)(=O)c2cccc3nc(C)ccc23)CC1 [II-99]
> 10 µM	+ (<150)	> 10 µM	< 50%						O=C(NS(=O)(=O)c1ccc(Cl)cc1)C1(c2cccc(Cl)c2)CC1 [Example III-10, N-(4-chlorobenzene-1-sulfonyl)-1-(3-chlorophenyl)cyclopropane-1-carboxamide]
				+++ (≥350)	3 to 10 µM	50 to 150%		++^a	Cc1cnc(N(C)C)cc1C1(C(=O)NS(=O)(=O)c2cccc3ncccc23)CC1 [GII-11, 1-[2-(dimethylamino)-5-methylpyridin-4-yl]-N-(quinoline-5-sulfonyl)cyclopropane-1-carboxamide]
				+++ (≥350)	< 3 µM	> 150%	3 to 10 µM		CCc1cnc(N2CCC(OC(C)C)CC2)c(C2(C(=O)NS(=O)(=O)c3cccc4[nH]ccc34)CC2)c1 [Example GI-102, 1-(5-ethyl-2-{4-[(propan-2-yl)oxy]piperidin-1-yl}pyridin-3-yl)-N-(1H-indole-4-sulfonyl)cyclopropane-1-carboxamide]
< 3 µM	+++ (≥350)	< 3 µM	> 150%						CCc1cnc(OC(C)C)c(C2(C(=O)NS(=O)(=O)c3cccc4ncccc34)CC2)c1 [Example GI-13, 1-{5-ethyl-2-[(propan-2-yl)oxy]pyridin-3-yl}-N-(quinoline-5-sulfonyl)cyclopropane-1-carboxamide]
3 to 10 µM	+++ (≥350)	< 3 µM	> 150%						COc1ncc(C2CCC2)cc1C1(C(=O)NS(=O)(=O)c2cccc3ccccc23)CC1 [Example I-5, 1-(5-cyclobutyl-2-methoxypyridin-3-yl)-N-(naphthalene-1-sulfonyl)cyclopropane-1-carboxamide]
3 to 10 µM	+++ (≥350)	< 3 µM	> 150%						COc1cc(C2CCC2)cc(OC)c1C1(C(=O)NS(=O)(=O)c2cccc3ncn(C)c23)CC1 [Example III-123, 1-(4-cyclobutyl-2,6-dimethoxyphenyl)-N-(1-methyl-1H-benzimidazole-7-sulfonyl)cyclopropane-1-carboxamide]
3 to 10 µM	+++ (≥350)	3 to 10 µM	> 150%						O=C(NS(=O)(=O)c1cccc2ncccc12)C1(c2cccc(Br)c2)CC1 [Example III-93, 1-(3-bromophenyl)-N-(quinoline-5-sulfonyl)cyclopropane-1-carboxamide]
< 3 µM	+++ (≥350)	< 3 µM	> 150%						COc1ccc(C(C)(C)OC)cc1C1(C(=O)NS(=O)(=O)c2cccc3ncccc23)CC1 [Example I-52, 1-[2-methoxy-5-(2-methoxypropan-2-yl)phenyl]-N-(quinoline-5-sulfonyl)cyclopropane-1-carboxamide]
3 to 10 µM	+++ (≥350)	3 to 10 µM	> 150%						COc1cc(C2(C(=O)NS(=O)(=O)c3cccc4ccccc34)CC2)ccc1C [II-2]
				+++ (≥350)	3 to 10 µM	> 150%	3 to 10 µM		Cc1cnc(N2CCCC2)c(C2(C(=O)NS(=O)(=O)c3cccc4ncccc34)CC2)c1 [GII-38, 1-[5-methyl-2-(pyrrolidin-1-yl)pyridin-3-yl]-N-(quinoline-5-sulfonyl)cyclopropane-1-carboxamide]
				+ (<150)	> 10 µM	< 50%	> 10 µM		CCc1ccncc1C1(C(=O)NS(=O)(=O)c2cccc3ncccc23)CC1 [GIII-6]
< 3 µM	+++ (≥350)	< 3 µM	> 150%						CCOc1ccc(C2(OC)CCC2)cc1C1(C(=O)NS(=O)(=O)c2cccc3nc(C)ccc23)CC1 [Example I-105, 1-[2-ethoxy-5-(1-methoxycyclobutyl)phenyl]-N-(2-methylquinoline-5-sulfonyl)cyclopropane-1-carboxamide]
3 to 10 µM	+++ (≥350)	< 3 µM	> 150%						COc1ncc(C(F)(F)F)cc1C1(C(=O)NS(=O)(=O)c2cccc3ncccc23)CC1 [II-7]
< 3 µM	+++ (≥350)	< 3 µM	> 150%						COc1ccc(C(C)C)cc1C1(C(=O)NS(=O)(=O)c2cccc3nc(C)ccc23)CC1 [Example I-71, 1-[2-methoxy-5-(propan-2-yl)phenyl]-N-(2-methylquinoline-5-sulfonyl)cyclopropane-1-carboxamide]
				+++ (≥350)	< 3 µM	> 150%	3 to 10 µM		CCc1cnc(N2CCC(COC)CC2)c(C2(C(=O)NS(=O)(=O)c3cccc4[nH]ccc34)CC2)c1 [Example GI-120, 1-{5-ethyl-2-[4-(methoxymethyl)piperidin-1-yl]pyridin-3-yl}-N-(1H-indole-4-sulfonyl)cyclopropane-1-carboxamide]
				+++ (≥350)	< 3 µM	> 150%	< 3 µM		CC(C)COc1ncc(C2CC2)cc1C1(C(=O)NS(=O)(=O)c2cccc3ncccc23)CC1 [Example GI-48, 1-[5-cyclopropyl-2-(2-methylpropoxy)pyridin-3-yl]-N-(quinoline-5-sulfonyl)cyclopropane-1-carboxamide]
